Key:
[1] = tested on: Colletotrichum orbiculare; experiment: Test Example H: anthracnose on cucumber; conditions: in Cucumis sativus, read-out: control value
Description: (§1) Disease development in Test Examples described below was evaluated in increments of 0.05 by setting 0 as no incidence of disease and 3 as disease development in a plant of untreated group. Further, control values were calculated using the following equation based on disease development.
(§2) <Control Value> Control value=100{1−(n/3)} • n=Disease development of each treated group
Seeds of a test plant (cucumber variety: Sagami Hanjiro) were planted and cultivated until the first leaf appeared. In the test, the inventive compounds were dissolved into a dimethyl sulfoxide-methanol mixture solution (volume ratio: 9/1), and the resultant solutions were diluted with well water to a concentration of 250 ppm. The thus-obtained dilutions were sprayed to the test plant (2.5 ml/pot). After the dilutions dried, a conidial suspension (2-4×10^5 conidia/ml) of Colletotrichum orbiculare was inoculated to the plant by spraying. After the inoculation, the plant was kept in a mist chamber at room temperature of 20 to 23° C. for about 24 hours to promote the onset of disease. The disease development was investigated 6 to 10 days after the inoculation, and the effectiveness of the dilutions was evaluated.

[2] = tested on: Alternaia brassicicola; experiment: Test Example C: Alternaria sooty spot on cabbage; conditions: Brassica oleracea, read-out: control value
Description: as §1, §2
Seeds of a test plant (cabbage variety: Shikidori) were planted and cultivated until the cotyledons extended. In the test, the inventive compounds were dissolved into a dimethyl sulfoxide-methanol mixture solution (volume ratio: 9/1), and the resultant solutions were diluted with well water to a concentration of 250 ppm. The thus-obtained dilutions were sprayed to the test plant (2.5 ml/pot). After the dilutions dried, a conidial suspension (4-8×10^5 conidia/ml) of Alternaia brassicicola was inoculated to the plant by spraying. After the inoculation, the plant was kept in a mist chamber at room temperature of 20 to 23° C. for about 48 hours to promote the onset of disease. The disease development was investigated 2 to 3 days after the inoculation, and the effectiveness of the dilutions was evaluated.

[3] = tested on: Puccinia recondita; experiment: Test Example E: brown rust on wheat; assay type: in vivo; conditions: 250 ppm spray (2.5 ml/pot) before inoculation, wheat variety Norin 61, investigated 7 to 10 days after inoculation
[4] = tested on: Magnaporthe grisea; experiment: whole plant or invertebrate; assay type: in vivo; conditions: Pyricularia oryzae, in Oryza sativa, read-out: control value

Measured: pest or weed control at 250 ppm

CCn1c(-c2ccccc2)c(-n2cnc(Cl)c2Cl)ccc1=O [IM-001, 5-(4,5-dichloro-1H-imidazol-1-yl)-1-ethyl-6-phenylpyridine-2(1H)-one]
> 50%: all assays above

CCn1c(-c2ccccc2)c(-n2cnc(Cl)c2Cl)cc(Cl)c1=O [IM-003, 3-chloro-5-(4,5-dichloro-1H-imidazol-1-yl)-1-ethyl-6-phenylpyridine-2(1H)-one]
> 50%: all assays above

CCn1c(-c2ccc(OC)cc2)c(-n2ncc(C)c2Cl)cc(Cl)c1=O [PY-018, 3-chloro-5-(5-chloro-4-methyl-1H-pyrazol-1-yl)-1-ethyl-6-(4-methoxyphenyl)pyridine-2(1H)-one]
> 50%: all assays above

COc1ccc(-c2c(-n3cc(C)cn3)ccc(=O)n2CC(F)F)cc1 [PY-031, 1-(2,2-difluoroethyl)-6-(4-methoxyphenyl)-5-(4-methyl-1H-pyrazol-1-yl)pyridine-2(1H)-one]
> 50%: [2]

COc1ccc(-c2c(-n3ncc(C)c3Cl)cc(Cl)c(=O)n2CC(F)F)cc1 [PY-032, 3-chloro-5-(5-chloro-4-methyl-1H-pyrazol-1-yl)-1-(2,2-difluoroethyl)-6-(4-methoxyphenyl)pyridine-2(1H)-one]
> 50%: all assays above

CCn1c(-c2ccc(OC)cc2)c(-n2cc(C)cn2)ccc1=O [PY-036, 1-ethyl-6-(4-methoxyphenyl)-5-(4-methyl-1H-pyrazol-1-yl)pyridine-2(1H)-one]
> 50%: [1] | [2]

CCn1c(-c2ccc(O)cc2)c(-n2ncc(C)c2Cl)cc(Cl)c1=O [PY-041, 3-chloro-5-(5-chloro-4-methyl-1H-pyrazol-1-yl)-1-ethyl-6-(4-hydroxyphenyl)pyridine-2(1H)-one]
> 50%: [2] | [3] | [4]

CCn1c(-c2ccc(OCC(F)F)cc2)c(-n2ncc(C)c2Cl)cc(Cl)c1=O [PY-046, 3-chloro-5-(5-chloro-4-methyl-1H-pyrazol-1-yl)-6-(4-(2,2-difluoroethoxy)phenyl)-1-eth ylpyridine-2(1H)-one]
> 50%: [2] | [3] | [4]

CCn1c(-c2ccc(F)cc2)c(-n2nccc2C(F)(F)F)cc(Cl)c1=O [PY-090, 3-chloro-1-ethyl-6-(4-fluorophenyl)-5-(5-(trifluoromethyl)-1H-pyrazol-1-yl)pyridine-2(1H)-one]
> 50%: all assays above

CCn1c(-c2ccc(F)cc2)c(-n2nccc2Cl)cc(Cl)c1=O [PY-104, 3-chloro-5-(5-chloro-1H-pyrazol-1-yl)-1-ethyl-6-(4-fluorophenyl)pyridine-2(1H)-one]
> 50%: all assays above

COn1c(-c2ccc(F)cc2)c(-n2cc(C)cn2)ccc1=O [PY-374, 6-(4-fluorophenyl)-1-methoxy-5-(4-methyl-1H-pyrazol-1-yl)pyridin-2(1H)-one]
> 50%: [2]

COn1c(-c2ccc(F)cc2)c(-n2cc(C)cn2)cc(Br)c1=O [PY-381, 3-bromo-6-(4-fluorophenyl)-1-methoxy-5-(4-methyl-1H-pyrazol-1-yl)pyridin-2 (1H)-one]
> 50%: [1] | [2]

COn1c(-c2ccc(F)cc2)c(-n2ncc(C)c2Cl)cc(Br)c1=O [PY-382, 3-bromo-5-(5-chloro-4-methyl-1H-pyrazol-1-yl)-6-(4-fluorophenyl)-1-methoxypyridin-2(1H)-one]
> 50%: all assays above
